Data on 24 compounds can be found in US10106534B2 (CELGENE QUANTICEL RESEARCH, INC., priority 2014, dated 2018).

Each structure is given as a SMILES string.

In one assay the target is JMJD2C (Homo sapiens (Human), UniProt Q9H3R0). In words: In vitro enzyme inhibition assay for JMJD2C activity (TR-FRET). The assay is classed as biochemical.
JMJD2C, sequence (Q9H3R0 2-372): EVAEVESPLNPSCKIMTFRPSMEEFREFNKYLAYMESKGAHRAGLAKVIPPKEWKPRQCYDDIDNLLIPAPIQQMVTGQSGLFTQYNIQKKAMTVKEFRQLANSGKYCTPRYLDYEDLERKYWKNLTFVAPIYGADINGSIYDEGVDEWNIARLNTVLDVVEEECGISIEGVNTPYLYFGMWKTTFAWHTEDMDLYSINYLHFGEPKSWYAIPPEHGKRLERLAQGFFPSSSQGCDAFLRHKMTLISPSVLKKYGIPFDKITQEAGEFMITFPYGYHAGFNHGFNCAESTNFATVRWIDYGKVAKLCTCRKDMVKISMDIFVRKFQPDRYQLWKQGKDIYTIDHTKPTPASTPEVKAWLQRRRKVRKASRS
Conditions: not given
As for the experimental part: This assay determines the ability of a test compound to inhibit JMJD2C demethylase activity. Baculovirus expressed JMJD2C (GenBank Accession #BC143571, AA 2-372) was purchased from BPS Bioscience (Cat#50105).
The ability of test compounds to inhibit the activity of JMJD2C was determined in 384-well plate format under the following reaction conditions: 0.3 nM JMJD2C, 300 nM H3K9me3-biotin labeled peptide (Anaspec cat #64360), 2 μM alpha-ketoglutaric acid in assay buffer of 50 mM HEPES, pH7.3, 0.005% Brij35, 0.5 mM TCEP, 0.2 mg/ml BSA, 50 μM sodium L-ascorbate, and 2 μM ammonium iron(II) sulfate. Reaction product was determined quantitatively by TR-FRET after the addition of detection reagent Phycolink Streptavidin-allophycocyanin (Prozyme) and Europium-anti-di-methylated histone H3 lysine 9 (H3K9me2) antibody (PerkinElmer) in the presence of 5 mM EDTA in LANCE detection buffer (PerkinElmer) at a final concentration of 50 nM and 1 nM, respectively.
The assay reaction was initiated by the following: 2 μl of the mixture of 900 nM H3K9me3-biotin labeled peptide and 6 μM alpha-ketoglutaric acid with 2 μl of 11-point serial diluted inhibitor in 3% DMSO were added to each well of the plate, followed by the addition of 2 μl of 0.9 nM JMJD2C to initiate the reaction. The reaction mixture was incubated at room temperature for 30 minutes, and terminated by the addition of 6 μl of 5 mM EDTA in LANCE detection buffer containing 100 nM Phycolink Streptavidin-allophycocyanin and 2 nM Europium-anti-H3K9me2 antibody. Plates were read by EnVisionMultilabel Reader in TR-FRET mode (excitation at 320 nm, emission at 615 nm and 665 nm) after 1 hour incubation at room temperature. A ratio was calculated (665/615) for each well and fitted to determine inhibition constant (IC50).
As a reminder, the IC50 is the concentration needed to halve the response being measured. In the case of `Cc1c(F)cccc1-c1ccc2c(c1)OCC[C@@H]2CNc1cnccc1C(=O)O` [Example 41, 3-({[(4S)-7-(3-fluoro-2-methylphenyl)-3,4-dihydro-2H-1-benzopyran-4-yl]methyl}amino)pyridine-4-carboxylic acid], the IC50 was 1 to 10 µM. As for `O=C(O)c1ccncc1NC[C@H]1CCOc2cc(Oc3ccccc3)ccc21` [Example 47, 3-({[(4S)-7-phenoxy-3,4-dihydro-2H-1-benzopyran-4-yl]methyl}amino)pyridine-4-carboxylic acid], the IC50 is 1 to 10 µM. In turn, `Cc1ccccc1Sc1ccc2c(c1)OCC[C@@H]2CNc1cnccc1C(=O)O` [Example 50, 3-({[(4S)-7-[(2-methylphenyl)sulfanyl]-3,4-dihydro-2H-1-benzopyran-4-yl]methyl}amino)pyridine-4-carboxylic acid] gave an IC50 of 1 to 10 µM. The same measure, in the same setting: to `Cc1ccccc1Oc1ccc2c(c1)CCC[C@@H]2CNc1cnccc1C(=O)O` [Example 57, 3-({[(1S)-6-(2-methylphenoxy)-1,2,3,4-tetrahydronaphthalen-1-yl]methyl}amino)pyridine-4-carboxylic acid] belongs 1 to 10 µM. `O=C(O)c1ccncc1NC[C@H]1CCCc2cc(OC(F)F)ccc21` [Example 60, 3-({[(1S)-6-(difluoromethoxy)-1,2,3,4-tetrahydronaphthalen-1-yl]methyl}amino)pyridine-4-carboxylic acid] displayed an IC50 of 1 to 10 µM. With `O=C(O)c1ccncc1NCC1CCCc2cc(Oc3ccccc3C(F)(F)F)ccc21` (stereo not drawn) [Example 62, 3-[({6-[2-(trifluoromethyl)phenoxy]-1,2,3,4-tetrahydronaphthalen-1-yl}methyl)amino]pyridine-4-carboxylic acid], the IC50 lay within 1 to 10 µM. Take `Cc1cccc(Sc2ccc3c(c2)CCC[C@@H]3CNc2cnccc2C(=O)O)c1` [Example 68, 3-({[(1S)-6-[(3-methylphenyl)sulfanyl]-1,2,3,4-tetrahydronaphthalen-1-yl]methyl}amino)pyridine-4-carboxylic acid]: the IC50 was 1 to 10 µM.

Compound `Cc1ccccc1Sc1ccc2c(c1)CCC[C@@H]2CNc1cnccc1C(=O)O` [Example 70, 3-({[(1S)-6-[(2-methylphenyl)sulfanyl]-1,2,3,4-tetrahydronaphthalen-1-yl]methyl}amino)pyridine-4-carboxylic acid] gave a 50% inhibitory concentration (IC50) of 1 to 10 µM. Regarding `O=C(O)c1ccncc1NC[C@H]1CCCc2cc(Sc3ccccc3F)ccc21` [Example 72, 3-({[(1S)-6-[(2-fluorophenyl)sulfanyl]-1,2,3,4-tetrahydronaphthalen-1-yl]methyl}amino)pyridine-4-carboxylic acid], the IC50 lay within 1 to 10 µM. Compound `O=C(O)c1ccncc1NC[C@H]1CCCc2cc(Sc3cccc(F)c3)ccc21` [Example 74, 3-({[(1S)-6-[(3-fluorophenyl)sulfanyl]-1,2,3,4-tetrahydronaphthalen-1-yl]methyl}amino)pyridine-4-carboxylic acid] had an IC50 of 1 to 10 µM. For the compound `O=C(O)c1ccncc1NC[C@@H]1CCCc2cc(Sc3cccc(F)c3)ccc21` [Example 75, 3-({[(1R)-6-[(3-fluorophenyl)sulfanyl]-1,2,3,4-tetrahydronaphthalen-1-yl]methyl}amino)pyridine-4-carboxylic acid], the IC50 fell in the range of 0.1 to 1 µM. In turn, `O=C(O)c1ccncc1NC[C@H]1CCCc2cc(Sc3ccc(F)cc3)ccc21` [Example 76, 3-({[(1S)-6-[(4-fluorophenyl)sulfanyl]-1,2,3,4-tetrahydronaphthalen-1-yl]methyl}amino)pyridine-4-carboxylic acid] returned an IC50 of 1 to 10 µM.

Turning to `Cc1ccc(Sc2ccc3c(c2)CCC[C@@H]3CNc2cnccc2C(=O)O)cc1` [Example 78, 3-({[(1S)-6-[(4-methylphenyl)sulfanyl]-1,2,3,4-tetrahydronaphthalen-1-yl]methyl}amino)pyridine-4-carboxylic acid], the IC50 lay within 1 to 10 µM. Take `O=C(O)c1ccncc1NC[C@H]1CCCc2cc(S(=O)(=O)c3ccccc3)ccc21` [Example 81, 3-({[(1S)-6-(benzenesulfonyl)-1,2,3,4-tetrahydronaphthalen-1-yl]methyl}amino)pyridine-4-carboxylic acid]: the IC50 fell in the range of 0.1 to 1 µM. For `Cc1ccc(S(=O)(=O)c2ccc3c(c2)CCC[C@@H]3CNc2cnccc2C(=O)O)cc1` [Example 83, 3-({[(1S)-6-(4-methylbenzenesulfonyl)-1,2,3,4-tetrahydronaphthalen-1-yl]methyl}amino)pyridine-4-carboxylic acid], the IC50 fell in the range of 0.1 to 1 µM. The compound `Cc1cccc(S(=O)(=O)c2ccc3c(c2)CCC[C@@H]3CNc2cnccc2C(=O)O)c1` [Example 85, 3-({[(1S)-6-(3-methylbenzenesulfonyl)-1,2,3,4-tetrahydronaphthalen-1-yl]methyl}amino)pyridine-4-carboxylic acid] had an IC50 of 1 to 10 µM.

Consider `O=C(O)c1ccncc1NCC1CCCc2cc(S(=O)(=O)c3cccc(F)c3)ccc21` (stereo not drawn) [Example 87, 3-({[6-(3-fluorobenzenesulfonyl)-1,2,3,4-tetrahydronaphthalen-1-yl]methyl}amino)pyridine-4-carboxylic acid], for which the IC50 lay in the range of 0.1 to 1 µM. Take `CCc1ccc2c(c1)CCC[C@@H]2CNc1cnccc1C(=O)O` [Example 90, 3-({[(1S)-6-ethyl-1,2,3,4-tetrahydronaphthalen-1-yl]methyl}amino)pyridine-4-carboxylic acid]: the IC50 was 0.1 to 1 µM. As to `COc1cc2c(cc1F)[C@@H](CNc1cnccc1C(=O)O)CCC2` [Example 96, 3-({[(1S)-7-fluoro-6-methoxy-1,2,3,4-tetrahydronaphthalen-1-yl]methyl}amino)pyridine-4-carboxylic acid], the IC50 is 0.1 to 1 µM. The same measure, in the same setting: to `COc1ccc2c(c1C)CCC[C@@H]2CNc1cnccc1C(=O)O` [Example 98, 3-({[(1S)-6-methoxy-5-methyl-1,2,3,4-tetrahydronaphthalen-1-yl]methyl}amino)pyridine-4-carboxylic acid] belongs 0.1 to 1 µM; to `Cc1ccccc1-c1ccc2c(c1)OCC[C@@H]2CNc1cnccc1C(=O)O` [Example 100, 3-({[(4S)-7-(2-methylphenyl)-3,4-dihydro-2H-1-benzopyran-4-yl]methyl}amino)pyridine-4-carboxylic acid], 1 to 10 µM.

In the case of `COc1ccc(Cl)c(-c2ccc3c(c2)OCC[C@H]3CNc2cnccc2C(=O)O)c1` [Example 107, 3-({[(4R)-7-(2-chloro-5-methoxyphenyl)-3,4-dihydro-2H-1-benzopyran-4-yl]methyl}amino)pyridine-4-carboxylic acid], the IC50 was 0.1 to 1 µM. `O=C(O)c1ccncc1NC[C@@H]1CCCc2cc(N3CCOc4ccccc43)ccc21` [Example 108, 3-({[(1R)-6-(3,4-dihydro-2H-1,4-benzoxazin-4-yl)-1,2,3,4-tetrahydronaphthalen-1-yl]methyl}amino)pyridine-4-carboxylic acid] came in with an IC50 of 1 to 10 µM.

Still in this assay, the particulars now being: R-enantiomer vs S-enantiomer.
As for `O=C(O)c1ccncc1NC[C@@H]1CCOc2cc(-c3ccccc3)ccc21` [Example 84 of U.S. Pat. No. 8,952,151, 3-({[(4R)-7-phenyl-3,4-dihydro-2H-1-benzopyran-4-yl]methyl}amino)pyridine-4-carboxylic acid, reference compound], the “fold more potent for JMJD2C than the S-enantiomer” value is given as “about 6 fold”.
